Consider 4 compounds from paper PMC8402726 (Viruses, 2021).

In data set [1] the test system is SARS-CoV-2. Description: microbe, parasite or virus in culture. It is filed as cell-based. Conditions: for SI: CC50/EC50, Vero cells, SARS-CoV-2; for EC50: Severe acute respiratory syndrome coronavirus 2, MOI 0.1, 48 h, 50% reduction in viral titers, read-out: EC50 (µM) (95% CI); for EC50 / Inhibition of SARS-CoV-2 replication at single concentration: Vero cells; for Inhibition of SARS-CoV-2 replication at single concentration: 50 µM, initial screening.

Data set [2] deals with SARS-CoV-2. Description: microbe, parasite or virus in culture. Type of data set: cell-based. The conditions noted are these: for EC50: Severe acute respiratory syndrome coronavirus 2, CaCo-2 cells, MOI 0.1, 48 h, 50% reduction in viral titers, read-out: EC50 (µM) (95% CI); for SI: CC50/EC50, CaCo-2 cells, SARS-CoV-2.
In the next data set the test system is FIPV. Description: Viral titer reduction assay, FIPV in CRFK cells (plaque assay readout). It is filed as cell-based, feline infectious peritonitis virus. Conditions: for SI: CC50/EC50, CRFK cells; for SI / EC50: FIPV; for Inhibition of FIPV replication at single concentration: 50 µM, initial screening; for Inhibition of FIPV replication at single concentration / EC50 / Anti-FIPV activity lower compared with remdesivir: CRFK cells; for EC50: MOI 0.1, 48 h, 50% reduction in viral titers, read-out: EC50 (µM) (95% CI); for Anti-FIPV activity lower compared with remdesivir: relative to remdesivir EC50.

A short description of data set [3]: Cytotoxicity (Cell Counting Kit-8, WST-8) in Vero cells. The conditions noted are these: African green monkey. Background: Formazan colour is commonly taken as a measure of viable cells.
Data set [4] is described as follows: Cytotoxicity (Cell Counting Kit-8, WST-8) in CRFK cells. Conditions: cat (Felis catus).
Data set [5] can be described thus: Cytotoxicity (Cell Counting Kit-8, WST-8) in CaCo-2 cells. The conditions noted are these: human.
For the next data set, the target named is SARS-CoV-2 RdRp (Severe acute respiratory syndrome coronavirus 2, UniProt P0DTD1). Description: biochemical. It is filed as biochemical. The conditions noted are these: for Inhibition of SARS-CoV-2 RdRp at one concentration: in vitro RdRp assay, 100 µM.
A short description of data set [6]: in vitro. Conditions: African green monkey.
Data set [7] is described as follows: in vitro. The conditions noted are these: human.
Data set [8] can be described thus: in vitro. Conditions: cat (Felis catus).
In another data set the test system is Vero cells. Conditions: 50 µM.
A further data set concerns CaCo-2 cells. Conditions: 50 µM.
The mark [9] stands for this setting: radioactive primer extension assay, n = 3, ± standard error of the mean, read-out: IC50.

The term EC50 denotes the midpoint of the concentration-response curve. For orientation: IC50 means the midpoint of a concentration-inhibition curve. As a reminder, the viability is the share of living cells, or the viability signal relative to a control.

Like-named read-outs stand apart in the source and are kept apart here.

Turning to `CCC(CC)COC(=O)[C@H](C)N[P@](=O)(OC[C@H]1O[C@@](C#N)(c2ccc3c(N)ncnn23)[C@H](O)[C@@H]1O)Oc1ccccc1` [Remdesivir], the figures for the SI with SARS-CoV-2 [1] and in the data set with FIPV were more than 55.5 and more than 224.2, respectively. Moreover, the EC50 with SARS-CoV-2 [1] was 0.901 µM; in the data set with SARS-CoV-2 [2], less than 0.3 µM. Besides, the CC50 at 48 h in data set [3], in data set [4] and in data set [5] was more than 50 µM in each case.

`O=C(N[C@@H](Cc1ccc(O)cc1)C(=O)O)c1cc(-c2ccccc2)c(=O)n2c1sc1ccc(OC3CCCCC3)cc12` [Compound 16, reference compound] came in with an IC50 against SARS-CoV-2 RdRp of 27.6 ± 2.1 µM. The “Inhibition of SARS-CoV-2 RdRp at one concentration” value (“Inhibition of SARS-CoV-2 RdRp” below) on SARS-CoV-2 RdRp is “inhibit”. Besides, the “Inhibition of SARS-CoV-2 replication at single concentration” value (shortened to “Inhibition of SARS-CoV-2 replication”) in the data set on SARS-CoV-2 [1] is “completely inhibit”. The SI in the data set on SARS-CoV-2 [1] is given as more than 76.5; in the data set on SARS-CoV-2 [1] (listed as HeE1-2Tyr (16)), more than 70; in the data set with SARS-CoV-2 [2], more than 52.7; in the data set on SARS-CoV-2 [2] (listed as HeE1-2Tyr (16)), more than 50; in the data set on FIPV it was more than 47.1; in the data set on FIPV (listed as HeE1-2Tyr (16)) it was “exceeding 40”. Further, the EC50 with SARS-CoV-2 [1] is 0.653 µM; with SARS-CoV-2 [2], 0.949 µM; in the data set on FIPV, 1.06 µM. For the same compound, in the data set on FIPV, the “Inhibition of FIPV replication at single concentration” value (from here on “Inhibition of FIPV replication”) is given as “completely inhibit”. Moreover, the “Anti-FIPV activity lower compared with remdesivir” value in the data set on FIPV is listed as “approx. 5 fold”. Also, the CC50 at 48 h in the data set “in vitro [6]”, in the data set “in vitro [7]” and in the data set “in vitro [8]” was more than 50 µM throughout.

Turning to `O=C(N[C@@H](Cc1ccc(O)cc1)C(=O)O)c1ccc(=O)n2c1sc1ccc(OC3CCCCC3)cc12` [Compound 18], on SARS-CoV-2 RdRp, the “Inhibition of SARS-CoV-2 RdRp” value is given as “inhibit”. Moreover, at SARS-CoV-2 RdRp (setting [9]), the half-inhibitory concentration (IC50) was 85.5 ± 2 µM. The “Inhibition of SARS-CoV-2 replication” value in the data set on SARS-CoV-2 [1] is “inactive”. In addition, the values for the SI with SARS-CoV-2 [1], with SARS-CoV-2 [2] and in the data set with FIPV were more than 1, more than 2 and more than 1, respectively. For the same compound, the EC50 with SARS-CoV-2 [1] was more than 50 µM; with SARS-CoV-2 [2], more than 25 µM. In addition, the “Inhibition of FIPV replication” value with FIPV was “inactive”. Also, the CC50 at 48 h in the data set “in vitro [6]”, in the data set “in vitro [7]” and in “in vitro [8]” was more than 50 µM each time.

Consider `O=C(N[C@@H](Cc1ccccc1)C(=O)O)c1cc(-c2ccccc2)c(=O)n2c1sc1ccc(OC3CCCCC3)cc12` [Compound 17], for which the “Inhibition of SARS-CoV-2 RdRp” value on SARS-CoV-2 RdRp is on record as “inhibit”. For the same compound, the IC50 at SARS-CoV-2 RdRp (setting [9]) was 41.2 ± 1.7 µM. Also, in the data set on SARS-CoV-2 [1], the “Inhibition of SARS-CoV-2 replication” value is given as “completely inhibit”, the SI is listed as more than 94.8 and the EC50 was found to be 0.527 µM. In the data set on SARS-CoV-2 [2], the SI was more than 50.2 and the EC50 was 0.996 µM. In the data set on FIPV, the “Inhibition of FIPV replication” value was “completely inhibit”, the EC50 worked out at 0.999 µM and the “Anti-FIPV activity lower compared with remdesivir” value is “approx. 5 fold”. In addition, the Cell viability entry in the data set on Vero cells is recorded as “approx. 125 % of untreated cells”. Also, the Cell viability result with CaCo-2 cells is “approx. 125 % of untreated cells”. In the data set “in vitro [6]”, this compound yielded a CC50 at 48 h of more than 50 µM. Further, the CC50 at 48 h in “in vitro [7]” was more than 50 µM. Further, in the data set “in vitro [8]”, the CC50 at 48 h was more than 50 µM and the viability at 48 h, 50 µM was approximately 60%.
